From patent US7304090B2, “Inhibition of the cystic fibrosis transmembrane conductance regulator chloride channel” (The University of Bristol, priority 2000, dated 2007)

Key:
Type I MDCK cells = test: Proliferation of MDCK cells (cell counting); assay type: cell-based, canine
Description: (§1) For cyst growth and cell proliferation experiments, we used Type I Madin-Darby canine kidney (MDCK) cells. We chose Type I MDCK cells because they form cysts when grown in collagen gels in the presence of cAMP agonists (26) and because they express the CFTR Cl^− channel (27). MDCK cells were cultured in MDCK media (a 1:1 mixture of Dulbecco's Modified Eagle Medium (DMEM) and Ham's F-12 nutrient medium supplemented with 100 U ml^−1 penicillin, and 100 μg ml^−1 streptomycin and either 10% fetal bovine serum (FBS; cyst growth) or 5% FBS and 1% insulin-transferrin-selenium-X (ITS-X) supplement (cell proliferation); all from Life Technologies Ltd, Paisley, UK) at 37° C. in a humidified atmosphere of 5% CO2.
To test the effect of CFTR modulators on the proliferation of MDCK cells, we used Type I MDCK cells grown in media containing 5% FBS and 1% ITS-X supplement. On day −1, MDCK cells were seeded at 7.5×10^4 cells ml^−1 in 35 mm dishes containing MDCK media with 1% FBS and 1% ITS-X supplement. On day 0, the concentration of FBS was reduced further to 0.01% and CFTR modulators added to the MDCK media. MDCK media containing CFTR modulators was changed every 2 days for a total period of 6 days. To determine the number of cells per 35 mm dish, Type I MDCK cells were harvested using trypsin (0.25% wt/vol), centrifuged at 1200 rpm for 5 min and resuspended in 1 ml of MDCK media before counting using a haemocytometer.

[1] = test system: Type I Madin-Darby canine kidney (MDCK) cells; test: Cyst growth of MDCK cells in collagen gels with cAMP agonists; assay type: cell-based; settings: 40 μM; days 12 to 21
Description: as §1
To grow cysts, MDCK cells were cultured in collagen gels using a modification of the method of Grantham et al. (26). Cells were trypsinized with 0.25% (wt/vol) trypsin for 30 minutes at 37° C., diluted with MDCK media containing 10% FBS to form a suspension of between 1-3×10^4 cells ml^−1, and aliquoted into individual wells of a 24-well plate (0.1 ml per well). Each well contained 0.4 ml of ice-cold Vitrogen (3.0 mg ml^−1 collagen; Cohesion Technologies Inc., Palo Alto, USA) supplemented with 10% (vol/vol) 10× minimum essential medium, 10 mM N-[2-hydroxyethyl]piperazine-N′-[2-ethanesulphonic acid] (Hepes), 27 mM NaHCO3, 100 U ml^−1 penicillin, and 100 μg ml^−1 streptomycin, and adjusted to pH 7.4 with NaOH. The 24-well plate was gently agitated to distribute cells throughout the Vitrogen and incubated in a water bath at 37° C. for 90 minutes to promote gelation of the Vitrogen.
After gelation, 1.5 ml MDCK media containing 10% FBS was added to each well of the 24-well plate. To promote cyst growth, we added cAMP agonists (forskolin (10 μM), 3-isobutyl-1-methylxanthine (IBMX; 100 μM), and 8-(4-chlorophenylthio) adenosine 3′:5′-cyclic monophosphate (CPT-cAMP; 500 μM)) to the MDCK media. Plates were maintained at 37° C. in a humidified atmosphere of 5% CO2 and the MDCK media containing cAMP agonists changed every three days.
Twelve days after seeding collagen gels with MDCK cells, cysts were readily detected at ×1000 magnification using an inverted microscope with phase contrast optics (Leica, model DMIL, Milton Keynes, UK). To test the effect of CFTR modulators on cyst growth, drugs were added to MDCK media in the continued presence of cAMP agonists. MDCK media containing cAMP agonists and CFTR modulators was changed every 3 days for a total period of 9 days. Photographs of individual cysts were taken before the addition of CFTR modulators and at three day intervals over the duration of the experiment. To identify individual cysts, each cyst was assigned a unique reference number using a grid placed below the 24-well plate.
The diameter of cysts was measured directly from photographs of cysts using images that had been magnified by identical amounts. By assuming that cysts are spherical in shape, we calculated cyst volume ( 4/3·π·r^3).

wild-type human CFTR = target: T1, wild-type human CFTR (Homo sapiens, UniProt P13569); test: CFTR Cl− channels recorded in excised inside-out membrane patches from C127 cells (patch-clamp); assay type: biochemical; settings: for effect on CFTR Cl− currents: PKA and ATP present
T1 construct: expressed in transfected cells
Description: For electrophysiological experiments, we used mouse mammary epithelial cells (C127 cells) stably expressing wild-type human CFTR (12). C127 cells expressing wild-type CFTR were cultured as previously described (10). Cells were seeded onto glass coverslips and used within 48 h.
The established sign convention was used throughout; currents produced by positive charge moving from intra- to extracellular solutions (anions moving in the opposite direction) are shown as positive currents.
[…] […] All experiments were conducted at 37° C.
PKA was maintained in the intracellular solution for the duration of experiments. Unless otherwise stated, voltage was −50 mV.
In time course studies, each point is the average current for a 4 s period with data points collected continuously; no data were collected while solutions were changed. Average current (I) for a specific intervention was determined as the average of all the data points collected during the intervention. […] Mean data were fitted to a linear form of equation (1) using linear least-squares regression to yield Ki and n values.
To measure single-channel current amplitude (i), Gaussian distributions were fitted to current amplitude histograms. For open probability (Po) and kinetic analyses, lists of open and closed times were created using a half-amplitude crossing criterion for event detection. Transitions <1 ms in duration were excluded from the analyses. Po was calculated using the equation: Po=(T1+T2+ . . . +TN)/(NTtot), (2) where N is the number of channels; Ttot is the total time analysed, and T1 is the time that one or more channels are open, T2 is the time two or more channels are open and so on. Only membrane patches that contained a single active channel were used for single-channel kinetic analyses.
To investigate whether inhibition of CFTR by fluorescein derivatives was voltage dependent, we used voltage ramp protocols. Macroscopic current-voltage (I-V) relationships were obtained in the absence and presence of fluorescein derivatives by averaging currents generated by 15-30 ramps of voltage each of 2 s duration; holding voltage was −50 mV. Basal currents recorded in the absence of PKA and ATP were subtracted from those recorded in the absence and presence of fluorescein derivatives to determine the effect of these agents on CFTR Cl^− currents.

T1 sequence (P13569 whole entry): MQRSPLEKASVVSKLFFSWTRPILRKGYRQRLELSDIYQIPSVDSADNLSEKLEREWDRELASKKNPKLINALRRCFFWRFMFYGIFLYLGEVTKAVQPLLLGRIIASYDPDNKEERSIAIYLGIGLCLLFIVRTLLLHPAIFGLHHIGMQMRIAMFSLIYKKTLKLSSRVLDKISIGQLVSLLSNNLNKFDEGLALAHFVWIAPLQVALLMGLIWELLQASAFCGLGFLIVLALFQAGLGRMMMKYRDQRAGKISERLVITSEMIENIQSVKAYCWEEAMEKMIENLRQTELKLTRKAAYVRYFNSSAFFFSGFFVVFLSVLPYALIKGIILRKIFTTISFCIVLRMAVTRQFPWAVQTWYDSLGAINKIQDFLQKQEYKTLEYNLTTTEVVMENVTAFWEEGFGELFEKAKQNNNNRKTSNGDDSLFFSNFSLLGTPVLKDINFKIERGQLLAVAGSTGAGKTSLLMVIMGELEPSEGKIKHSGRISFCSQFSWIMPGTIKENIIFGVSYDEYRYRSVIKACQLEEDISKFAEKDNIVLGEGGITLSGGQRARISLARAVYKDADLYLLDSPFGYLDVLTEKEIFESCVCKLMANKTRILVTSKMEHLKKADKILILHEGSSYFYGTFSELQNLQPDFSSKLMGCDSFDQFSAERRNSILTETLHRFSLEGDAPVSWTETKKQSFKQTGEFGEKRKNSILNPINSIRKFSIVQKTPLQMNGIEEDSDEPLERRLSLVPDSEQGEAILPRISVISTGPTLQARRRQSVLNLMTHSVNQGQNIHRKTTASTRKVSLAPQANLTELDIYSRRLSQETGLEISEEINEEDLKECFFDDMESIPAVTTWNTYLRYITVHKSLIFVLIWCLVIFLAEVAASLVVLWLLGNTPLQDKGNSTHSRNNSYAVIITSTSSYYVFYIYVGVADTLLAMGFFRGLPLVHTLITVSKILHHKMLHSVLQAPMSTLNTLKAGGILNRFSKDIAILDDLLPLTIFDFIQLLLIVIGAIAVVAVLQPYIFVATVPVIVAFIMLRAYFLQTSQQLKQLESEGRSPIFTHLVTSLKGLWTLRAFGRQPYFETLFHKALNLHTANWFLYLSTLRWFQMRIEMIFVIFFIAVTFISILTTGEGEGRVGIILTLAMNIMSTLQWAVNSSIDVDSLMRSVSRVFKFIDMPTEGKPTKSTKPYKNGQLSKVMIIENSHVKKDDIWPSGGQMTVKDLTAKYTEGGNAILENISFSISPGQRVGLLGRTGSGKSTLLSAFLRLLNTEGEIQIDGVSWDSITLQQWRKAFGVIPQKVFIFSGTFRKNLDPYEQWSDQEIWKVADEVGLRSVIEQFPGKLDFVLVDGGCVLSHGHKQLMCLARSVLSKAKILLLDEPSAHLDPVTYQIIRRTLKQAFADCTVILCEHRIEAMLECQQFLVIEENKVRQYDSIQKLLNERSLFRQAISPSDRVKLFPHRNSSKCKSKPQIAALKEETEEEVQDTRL

For O=C(O)c1c(Cl)c(Cl)c(Cl)c(Cl)c1-c1c2cc(Br)c(=O)c(Br)c-2oc2c(Br)c(O)c(Br)cc12 [phloxine B], the “inhibition of cell growth in the presence of cAMP agonists” value (Type I MDCK cells) was “unaffected by cAMP agonists”, the “rank order of prevention of cell growth” value (Type I MDCK cells) was “ouabain (1 μM)=phloxine B (40 μM)=genistein (100 μM)=NPPB (400 μM)>glibenclamide (100 μM)” and the “cell growth (number of cells), day 0 to 6” value (Type I MDCK cells; 40 μM) was “prevented cell growth”. For the same molecule, the “size of cysts (phase-contrast)” value [1] was “visible decrease in the size of cysts”, the “n (slope factor, Hill coefficient) of CFTR inhibition” value (wild-type human CFTR) was 2 and the “potency of CFTR inhibition compared with glibenclamide” value (wild-type human CFTR) was “potency greater than or equal to that of glibenclamide”. For the same molecule, the “reversibility of CFTR inhibition” value (wild-type human CFTR) was “partially reversible”, the “effect of ATP (5 mM) on inhibition of CFTR Cl− currents” value (wild-type human CFTR; 20 μM) was “fails to relieve” and the “pattern of channel gating” value (wild-type human CFTR; 20 μM) was “dramatically altered the pattern of channel gating”. The “open probability (Po)” value (wild-type human CFTR; 20 μM, P<0.05 vs control) was “significantly decreased”, the “single-channel current amplitude (i)” value (wild-type human CFTR; 20 μM, P<0.05 vs control) was “significantly decreased” and the “channel block at positive voltages” value (wild-type human CFTR; 40 μM, symmetrical 147 mM Cl−) was “relieved”. For the same molecule, the “effect on CFTR Cl− currents at negative voltages” value (wild-type human CFTR; 40 μM, symmetrical 147 mM Cl−) was “decreased CFTR Cl^− currents”, the “effect on CFTR Cl− currents” value (wild-type human CFTR; 1-5 μM in intracellular solution) was “stimulated” and the “effect on CFTR Cl− currents” value (wild-type human CFTR; 20-50 μM in intracellular solution) was “concentration-dependent decrease”. For the same molecule, the “rank order of potency for CFTR inhibition” value (wild-type human CFTR; concentration-response, FIG. 3) was “bengal rose B>phloxine B>eosin Y≧tetrachlorofluorescein>>fluorescein”, the “stimulation of CFTR channel activity” value (wild-type human CFTR; concentration-response, FIG. 3) was “stimulated channel activity” and the “effect on activity of CFTR Cl− channels” value (wild-type human CFTR; in the absence of either ATP or PKA) was “without effect”. The “effect on channel block by glibenclamide (50 μM)” value (wild-type human CFTR; phloxine B 1 μM) was “failed to prevent channel block”, the “I (average CFTR Cl− current) relative to control” value (wild-type human CFTR; phloxine B 20 μM together with glibenclamide 50 μM) was 10±2 % of the control value and the “I (average CFTR Cl− current) relative to control” value (wild-type human CFTR; phloxine B 20 μM, ATP 5 mM) was 51±5 % of the control value. The “I (average CFTR Cl− current) relative to control” value (wild-type human CFTR; phloxine B 20 μM, […]) was 56±6 % of the control value, the “I (average CFTR Cl− current) relative to control” value (wild-type human CFTR; phloxine B 20 μM, […], listed as Phloxine B) was 59±4 % of the control value and the “voltage-dependence of CFTR inhibition” value (wild-type human CFTR; voltage ramp ±100 mV, symmetrical 147 mM Cl−, ATP 1 mM) was “voltage-dependent”.
